{"source": "patent US8481600B2", "about": "“Formulation of aspirin that is stable and showing minimal hydrolysis for parenteral administration for the treatment of cardiovascular and other disease states” (Academic Pharmaceuticals, Inc., priority 2007, dated 2013)", "assay": "Dissolution of ASA in buffers and solvent systems (clear solution or suspension)", "type": "physicochemical", "conditions": "for Dissolution of aspirin in buffer: aspirin 10 to 50 mg/ml in 10 ml; for Dissolution of aspirin in solvent system: aspirin up to 75 mg/ml", "procedure": "Parenteral solutions comprising aspirin in buffers are typically prepared by mixing the required amount of aspirin in the buffer. The process is preferably carried out at room temperature, although other temperatures are acceptable for these preparations.\nASA (aspirin) was attempted to be dissolved in a number of solvent systems and then stability was determined if these solutions provided clear, colorless dissolution of ASA. In the following buffers aspirin was found riot to be soluble. These buffers are listed below: • 1.\nIn another series of experiments, dissolution of aspirin in solvents that are listed below were attempted to provide parenteral solutions suitable for intravenous administration comprising an effective amount of aspirin. […] The pH of the solutions ranged from 1.5 to 6.8. Ph adjustments were made using 1N NaOH solution. • 1. To water (2.0 ml), 1-propanol (0.5 ml) and Tween 20 (0.5 ml) was added to aspirin at a concentration level of up to 75 mg/ml. […] To water (2.0 ml), 1-propanol (0.5 ml) and Tween 40 (0.5 ml) was added to aspirin at a concentration level of up to 75 mg/ml. […] To water (2.0 ml), 1-propanol (0.5 ml) and Tween 60 (0.5 ml) was added to aspirin at a concentration level of up to 75 mg/ml. […] To water (2.0 ml), 1-propanol (0.5 ml) and Tween 80 (0.5 ml) was added to aspirin at a concentration level of up to 75 mg/ml. […] To water (2.0 ml), 1-propanol (0.5 ml) and PEG 300 was added to aspirin at a concentration level of up to 75 mg/ml. […] To water (2.0 ml), 1-propanol (0.5 ml) and PEG 400 was added to aspirin at a concentration level of up to 75 mg/ml. […] To water (2.0 ml), 1-propanol (0.5 ml) and PEG 600 was added to aspirin at a concentration level of up to 75 mg/ml. […] To water (2.0 ml), 1-propanol (0.5 ml) and glycerol was added to aspirin at a concentration level of up to 75 mg/ml. […] To water (2.0 ml), DMSO (1-2%) and Tween 20 was added to aspirin at a concentration level of up to 75 mg/ml. […] To water (2.0 ml), DMSO (1-2%) and Tween 40 was added to aspirin at a concentration level of up to 75 mg/ml. […] To water (2.0 ml), DMSO (1-2%) and Tween 60 was added to aspirin at a concentration level of up to 75 mg/ml. […] To water (2.0 ml), DMSO (1-2%) and Tween 80 was added to aspirin at a concentration level of up to 75 mg/ml. […] To glycerine (1 ml), 1-propanol (3 ml) and Tween 80 (0.2 ml) was added to aspirin at a concentration level of up to 75 mg/ml. […] To glycerine (1 ml), 1,2-propanol and Tween 80 (0.2 ml) was added to aspirin at a concentration level, of up to 75 mg/ml. […] To glycerine (1 ml), PEG 300 and Tween 80 (0.2 ml) was added to aspirin at a concentration of up to 75 mg/ml. […] To glycerine (1 ml), PEG 400 and Tween 80 (0.2 ml) was added to aspirin at a concentration of up to 75 mg/ml. […] To glycerine (1 ml), PEG 600 and Tween 80 (0.2 ml) was added to aspirin at a concentration of up to 75 mg/ml.\n• 1. To N,N-Dimethylacetamide (NNDMA) (10 ml), aspirin was added at a concentration level of up to 500 mg/ml. […] To N,N-Dimethylacetamide (NNDMA) (10 ml) and ASA, glycerol (0.1 in 10 ml) added, Tween 20 (0.1 in 10 ml) were added. […] To N,N-Dimethylacetamide (NNDMA) (10 ml) and ASA, glycerol (0.1 in 10 ml), Tween 40 (0.1 in 10 ml) were added. […] To N,N-Dimethylacetamide (NNDMA) (10 ml) and ASA, glycerol (0.1 in 10 ml), Tween 60 (0.1 in 10 ml) were added. […] To N,N-Dimethylacetamide (NNDMA) (10 ml) and ASA, glycerol (0.1 in 10 ml), Tween 80 (0.1 in 10 ml) were added. […] To N,N-Dimethylacetamide (NNDMA) (10 ml) and ASA, glycerol (0.1 in 10 ml) were added. […] To N,N-Dimethylacetamide (NNDMA) (10 ml) and ASA, glycerol (0.1 in 10 ml), and DMSO (1-2%) were added. […] To N,N-Dimethylacetamide (NNDMA) (10 ml) and ASA, DMSO (1-2%) was added. […] The amount of aspirin present was greater than 98% at room temperature for 6 months. […]", "data": [{"smiles": "CC(=O)Oc1ccccc1C(=O)O", "note": "[ASA, aspirin]", "values": [{"measurement": "solubility in N,N-dimethylacetamide", "value": "readily soluble"}, {"measurement": "Dissolution of ASA in NNDMA and other diluents: appearance", "setting": "1. N,N-Dimethylacetamide (NNDMA) (10 ml), aspirin up to 500 mg/ml", "value": "Clear Purity"}, {"measurement": "Dissolution of ASA in NNDMA and other diluents: appearance", "setting": "1. N,N-Dimethylacetamide (NNDMA) (10 ml), aspirin up to 500 mg/ml, listed as aspirin", "value": "clear solution"}, {"measurement": "Dissolution of ASA in NNDMA and other diluents: appearance", "setting": "2. NNDMA (10 ml), Glycerol (0.1 in 10 ml), Tween 20 (0.1 in 10 ml)", "value": "clear solution"}, {"measurement": "Dissolution of ASA in NNDMA and other diluents: appearance", "setting": "3. NNDMA (10 ml), Glycerol (0.1 in 10 ml), Tween 40 (0.1 in 10 ml)", "value": "clear solution"}, {"measurement": "Dissolution of ASA in NNDMA and other diluents: appearance", "setting": "4. NNDMA (10 ml), Glycerol (0.1 in 10 ml), Tween 60 (0.1 in 10 ml)", "value": "clear solution"}, {"measurement": "Dissolution of ASA in NNDMA and other diluents: appearance", "setting": "5. NNDMA (10 ml), Glycerol (0.1 in 10 ml), Tween 80 (0.1 in 10 ml)", "value": "clear solution"}, {"measurement": "Dissolution of ASA in NNDMA and other diluents: appearance", "setting": "6. NNDMA (10 ml), Glycerol (0.1 in 10 ml)", "value": "clear solution"}, {"measurement": "Dissolution of ASA in NNDMA and other diluents: appearance", "setting": "7. NNDMA (10 ml), Glycerol (0.1 in 10 ml), DMSO (1-2%)", "value": "clear solution"}, {"measurement": "Dissolution of ASA in NNDMA and other diluents: appearance", "setting": "8. NNDMA (10 ml), DMSO (1.2%) (text: 1-2%)", "value": "clear solution"}, {"measurement": "Dissolution of ASA in buffer", "setting": "AMPSO buffer 0.05 M, aspirin 10 to 50 mg/ml in 10 ml (″ = not soluble), listed as aspirin", "value": "suspension that was not clear"}, {"measurement": "Dissolution of ASA in buffer", "setting": "AMPSO buffer 0.10 M, aspirin 10 to 50 mg/ml in 10 ml (″ = not soluble), listed as aspirin", "value": "suspension that was not clear"}, {"measurement": "Dissolution of ASA in buffer", "setting": "Bicine buffer 0.10 M, aspirin 10 to 50 mg/ml in 10 ml (″ = not soluble), listed as aspirin", "value": "suspension that was not clear"}, {"measurement": "Dissolution of ASA in buffer", "setting": "Bis Tris buffer 0.05 M, aspirin 10 mg/ml to 50 mg/ml in 10 ml", "value": 0.05, "unit": "M not soluble"}, {"measurement": "Dissolution of ASA in buffer", "setting": "Bis Tris buffer 0.05 M, aspirin 10 mg/ml to 50 mg/ml in 10 ml, listed as aspirin", "value": "suspension that was not clear"}, {"measurement": "Dissolution of ASA in buffer", "setting": "Bis Tris buffer 0.10 M, aspirin 10 mg/ml to 50 mg/ml in 10 ml", "value": 0.10, "unit": "M not soluble"}, {"measurement": "Dissolution of ASA in buffer", "setting": "Bis Tris buffer 0.10 M, aspirin 10 mg/ml to 50 mg/ml in 10 ml, listed as aspirin", "value": "suspension that was not clear"}, {"measurement": "Dissolution of ASA in buffer", "setting": "CAPS buffer 0.05 M, aspirin 10 to 50 mg/ml in 10 ml (″ = not soluble), listed as aspirin", "value": "suspension that was not clear"}, {"measurement": "Dissolution of ASA in buffer", "setting": "CAPS buffer 0.10 M, aspirin 10 to 50 mg/ml in 10 ml (″ = not soluble), listed as aspirin", "value": "suspension that was not clear"}, {"measurement": "Dissolution of ASA in buffer", "setting": "HEPES buffer 0.05 M, aspirin 10 to 50 mg/ml in 10 ml (″ = not soluble), listed as aspirin", "value": "suspension that was not clear"}, {"measurement": "Dissolution of ASA in buffer", "setting": "HEPES buffer 0.10 M, aspirin 10 to 50 mg/ml in 10 ml (″ = not soluble), listed as aspirin", "value": "suspension that was not clear"}, {"measurement": "solubility", "setting": "N,N-dimethylacetamide (NNDMA), organic solvent or mixture, thermodynamic from solid, read-out: concentration at which aspirin was found to be soluble in NNDMA", "value": "≤ 500", "unit": "mg/mL"}, {"measurement": "Dissolution of ASA in buffer", "setting": "Saline (normal) 0.10 M, aspirin 10 to 50 mg/ml in 10 ml (″ = not soluble), listed as aspirin", "value": "suspension that was not clear"}, {"measurement": "Dissolution of ASA in buffer", "setting": "TAPS buffer 0.05 M, aspirin 10 to 50 mg/ml in 10 ml (″ = not soluble), listed as aspirin", "value": "suspension that was not clear"}, {"measurement": "Dissolution of ASA in buffer", "setting": "TAPS buffer 0.10 M, aspirin 10 to 50 mg/ml in 10 ml (″ = not soluble), listed as aspirin", "value": "suspension that was not clear"}, {"measurement": "Dissolution of ASA in buffer", "setting": "Tricine buffer 0.10 M, aspirin 10 to 50 mg/ml in 10 ml (″ = not soluble), listed as aspirin", "value": "suspension that was not clear"}, {"measurement": "Dissolution of aspirin in buffer", "setting": "Tricine buffer (0.1M), list item 7", "value": "suspension that was not clear"}, {"measurement": "Dissolution of aspirin in buffer", "setting": "bicine buffer (0.1M), list item 8", "value": "suspension that was not clear"}, {"measurement": "Dissolution of aspirin in solvent system", "setting": "glycerine (1 ml), 1,2-propanol, Tween 80 (0.2 ml)", "value": "clear solution"}, {"measurement": "Dissolution of aspirin in solvent system", "setting": "glycerine (1 ml), 1-propanol (3 ml), Tween 80 (0.2 ml)", "value": "clear solution"}, {"measurement": "Dissolution of aspirin in solvent system", "setting": "glycerine (1 ml), PEG 300, Tween 80 (0.2 ml)", "value": "clear solution"}, {"measurement": "Dissolution of aspirin in solvent system", "setting": "glycerine (1 ml), PEG 400, Tween 80 (0.2 ml)", "value": "clear solution"}, {"measurement": "Dissolution of aspirin in solvent system", "setting": "glycerine (1 ml), PEG 600, Tween 80 (0.2 ml)", "value": "clear solution"}, {"measurement": "Dissolution of aspirin in buffer", "setting": "sodium acetate (pH 6.5 and 3.8) buffer (0.1M), list item 6", "value": "suspension that was not clear"}, {"measurement": "Dissolution of aspirin in buffer", "setting": "sodium acetate pH 6.5 and 3.8 buffer (0.1M), list item 15", "value": "suspension that was not clear"}, {"measurement": "Dissolution of aspirin in solvent system", "setting": "water (2.0 ml), 1-propanol (0.5 ml), PEG 300", "value": "clear solution"}, {"measurement": "Dissolution of aspirin in solvent system", "setting": "water (2.0 ml), 1-propanol (0.5 ml), PEG 400", "value": "clear solution"}, {"measurement": "Dissolution of aspirin in solvent system", "setting": "water (2.0 ml), 1-propanol (0.5 ml), PEG 600", "value": "clear solution"}, {"measurement": "Dissolution of aspirin in solvent system", "setting": "water (2.0 ml), 1-propanol (0.5 ml), Tween 20 (0.5 ml)", "value": "clear solution"}, {"measurement": "Dissolution of aspirin in solvent system", "setting": "water (2.0 ml), 1-propanol (0.5 ml), Tween 40 (0.5 ml)", "value": "clear solution"}, {"measurement": "Dissolution of aspirin in solvent system", "setting": "water (2.0 ml), 1-propanol (0.5 ml), Tween 60 (0.5 ml)", "value": "clear solution"}, {"measurement": "Dissolution of aspirin in solvent system", "setting": "water (2.0 ml), 1-propanol (0.5 ml), Tween 80 (0.5 ml)", "value": "clear solution"}, {"measurement": "Dissolution of aspirin in solvent system", "setting": "water (2.0 ml), 1-propanol (0.5 ml), glycerol", "value": "clear solution"}, {"measurement": "Dissolution of aspirin in solvent system", "setting": "water (2.0 ml), DMSO (1-2%), Tween 20", "value": "clear solution"}, {"measurement": "Dissolution of aspirin in solvent system", "setting": "water (2.0 ml), DMSO (1-2%), Tween 40", "value": "clear solution"}, {"measurement": "Dissolution of aspirin in solvent system", "setting": "water (2.0 ml), DMSO (1-2%), Tween 60", "value": "clear solution"}, {"measurement": "Dissolution of aspirin in solvent system", "setting": "water (2.0 ml), DMSO (1-2%), Tween 80", "value": "clear solution"}]}]}
